The values that follow are results of earlier work, collected in patent US11318142B2, “Pharmaceutical formulation for use in the treatment of depressive and anxiety disorders” (priority 2018, dated 2022).

SMILES strings stand for the structures.

For this data set the following is noted: in vivo.

The term half-life denotes the time in which the quantity being followed falls by half. Consider `OCCN1CCN(CCCN2c3ccccc3C=Cc3ccccc32)CC1` [opipramol, 4-[3-(5H-dibenz[b,f]azepine-5-yl)propyl]-1-piperazinethanol], for which the half-life was 6 to 11 h.

Consider `COc1ccc(C(CN(C)C)C2(O)CCCCC2)cc1` (racemic) [venlafaxine, (RS)-1-[2-dimethylamino-1-(4-methoxyphenyl)-ethyl]cyclohexanol], for which the half-life is ~7 h.
